# Test results reported in US10391168B1, “Anti-CD70 combination therapy” (University of Bern, priority 2014, dated 2019).
# Experiments:
# [1] = tested on: conditional APC mutant mice; details: mouse, in vivo; cited from earlier work
# colon carcinoma cells = details: cited from earlier work
# Xenopus embryos = details: in vivo; cited from earlier work
# β-catenin = details: cited from earlier work
# DLD-1-cancer cells = details: colorectal adenocarcinoma derived; cited from earlier work
# [2] = tested on: CD34+ stem/progenitor cells from newly diagnosed CML patients; assay: Expression in FACS-sorted CD34+ CML stem/progenitor cells cultured ex vivo; details: imatinib 1 μM, 7 days
# [3] = tested on: human CD34+ CML stem/progenitor cells; assay: Murine xenograft CML model: human CML cells in BM of NSG mice; assay type: in vivo
# [4] = tested on: human CD34+ CML stem/progenitor cells; assay: Expression in human CML cells ex vivo from xenografted NSG mice; details: imatinib 50 mg/kg daily, 2 weeks
# From the text: (g-l) CD70 (g), SP1 (h), DNMT1 mRNA (i), and miR-29 expression (j-l) (qRT-PCR) in CD34^+ cells. (n-m) Correlation of CD70 expression with the expression of selected Wnt target genes RUNX1 (m) and WISP1 (n) in CD34^+ stem/progenitor cells from newly diagnosed chronic phase CML patients. Expression data are derived from a public repository for microarray data and are available under accession number E-MEXP-480 (EMBL EBI Arrayexpress). […] Statistics: (c-e), one-way ANOVA; (f-l), Student's t test; (m) and (n), Spearman correlation.
# (p-r) CD70 and CD27 expression were determined on primary human CML cells. […] After 2 weeks of treatment, mice were euthanized and CML cells were analyzed for the expression of CD70 and CD27 by FACS. […] (p-q) red lines, CD70 and CD27 antibodies; blue lines, respective isotype controls.
# [5] = tested on: human CD34+ CML stem/progenitor cells; assay: Liquid culture of primary human CD34+ CML stem/progenitor cells: cell numbers, BrdU, viability; assay type: cell-based; details: 7 days; anti-CD70 mAb 10 μg/ml, imatinib 1 μM, alone or combined
# [6] = tested on: CD34+ stem/progenitor cells from healthy donors; assay: Growth and colony formation of CD34+ stem/progenitor cells from BM of healthy donors; assay type: cell-based, human; details: anti-CD70 mAb 10 μg/ml, imatinib 1 μM, alone or combined; 7 or 14 days
# KBM5r cells = assay: miR-29 expression and anti-miR silencing in KBM5r cells (qRT-PCR); assay type: cell-based, human; details: imatinib 1 μM, nilotinib 1 μM, ponatinib 0.1 μM; 72 h
# Procedure: MicroRNA concentrations were measured using TaqMan miRNA Assays for miR-29a, miR-29b, miR-29c, or RNU48 (Applied Biosystems), and qRT-PCR results were normalized to RNU48 expression.
# 48 h after transfection, cells were harvested and subjected to total RNA extraction and cDNA synthesis for qRT-PCR.
# in vivo = details: NSG, mouse, plasma, oral, 50 mg/kg
# SD-1 cells = assay: Chou-Talalay drug combination study, growth inhibition of SD-1 cells (cell numbers after 72 h)
# [7] = tested on: imatinib-resistant KBM5r cells (BCR-ABL1 T315I); assay: CD70, SP1, DNMT1 expression and viability in imatinib-resistant KBM5r cells; assay type: cell-based, human
# Procedure: Specifically, 5×10^4 KBM5r cells were transduced overnight at 37° C. and 5% CO2 with 2×10^5 infectious units of shSP1 or the respective control lentiviral particles having scrambled RNA (Santa Cruz Biotechnology Inc.) in the presence of 5 μg/ml polybrene (Sigma-Aldrich) according to the manufacturer's instructions. After 18 hours, medium was removed, and cells were cultured in medium supplemented with 1 μg/ml puromycin to select for stable expression of shSP1 or scrambled RNA.
# KBM5r cells (1×10^5) stably transduced with shSP1 (shSP1), or the respective control scrambled RNA lentiviral particles (scr), were then cultured for 72 hours in the presence of vehicle or ponatinib (po; 0.1 μM). Treated cells were tested for MFI of CD70 protein expression (FACS) (FIG. 1, q), CD70 (FIG. 1, r) and SP1 (Figure, 1 s) mRNA expression (qRT-PCR).
# In a first experiment, 1×10^5 KBM5r cells were cultured in the presence of vehicle, ponatinib (po, 0.1 μM), lithium chloride (li, […]), or both in combination (po/li) for 24 h (FIG. 2, A-C). In a second experiment, 1×10^5 KBM5r cells were cultured in the presence of vehicle, ponatinib (po, 0.1 μM), R-Spondin 1 (R, 10 ng/ml), or both in combination (po/R) for 72 h (FIG. 2, D-E).
# [8] = tested on: CD70 promoter in KBM5r cells; assay: DNA methylation analysis of the CD70 promoter by bisulfite sequencing; assay type: cell-based, human; details: ponatinib 0.1 μM or azacytidine 1 μM, vs vehicle
# Procedure: The methylation profile of the SP1 transcription factor binding sites within the KBM5r cell CD70 promoter was analyzed by bisulfite sequencing after treatment of KBM5r cells with either a control, ponatinib (0.1 μM) or azacytidine (1 μM).
# Bisulfite conversion of the isolated DNA samples from both KBM5 and KBM5r cells were assessed using the Epitect® Bisulfite Kit (Qiagen) according to the manufacturer's protocol. The promoter region covering binding sites for important transcription factors were selectively amplified using the following primers: forward primer (−227˜−205): 5′-[…]-3′ (SEQ ID NO.: 9); reverse primer (+14˜+35): 5′-[…]-3′(SEQ ID NO.: 10). For the amplification of bisulfite-treated genomic DNA (gDNA), the following PCR conditions were used: 1×: 95° C. for 10 min; 40×: 95° C. for 30 s, 58° C. for 40 s, 72° C. for 1 min; 1×72° C. for 5 min. The PCR cocktail was: 3 μl of DNA (of at least 10 ng/μL DNA for a final concentration of […]) in a 25 μl total volume using 0.5 pmol of each primer, 200 μM dNTPs, 0.2 U Hot Start Taq DNA polymerase, 1.5 mM MgCl2 and the buffer supplied with the enzyme. The amplified promoter region were gel-purified and subjected for fluorescent Sanger sequencing. The relative quantification of the methylated allele (C) versus unmethylated allele (T) was assessed by the QSVAnalyser software. […]
# [9] = tested on: pancreatic tumor-initiating cells; details: cited from earlier work
# [10] = tested on: xenograft models of breast, lung, pancreatic, and colon cancer; details: in vivo; cited from earlier work
# [11] = 72 h, imatinib 1 μM, ponatinib 0.1 μM
molecule,measurement,setting,value
"COc1ccc(C2(CNC(=O)c3ccc(NC(=O)c4ccco4)cc3)CCOCC2)cc1 [JW55, N-(4-(((4-(4-methoxyphenyl)tetrahydro-2H-pyran-4-yl)methyl)carbamoyl)phenyl)furan-2-carboxamide]",tamoxifen-induced polyposis formation,[1],reduced
same,canonical WNT signaling,colon carcinoma cells; cells with mutations in APC locus or an allele of β-catenin,inhibited canonical WNT signaling
same,AXIN2 and β-catenin levels,colon carcinoma cells,"stabilization of AXIN2, a member of the β-catenin destruction complex, followed by increased degradation of β-catenin"
same,XWNT8-induced axis duplication,Xenopus embryos,reduced XWNT8-induced axis duplication
O=c1nc(-c2ccc(C(F)(F)F)cc2)[nH]c2c1CSCC2 [XAV939],WNT-stimulated accumulation of β-catenin,β-catenin,blocks WNT-stimulated accumulation of β-catenin
same,growth of DLD-1 cancer cells,DLD-1-cancer cells,inhibits growth
Cc1ccc(NC(=O)c2ccc(CN3CCN(C)CC3)cc2)cc1Nc1nccc(-c2cccnc2)n1 [imatinib],CD70 protein expression,[2],increased CD70 protein expression
same,Dnmt 1 mRNA expression,[2],down-regulated
same,Dnmt3a mRNA expression,[2],down-regulated
same,SP1 mRNA expression,[2],increased
same,frequencies and absolute numbers of CD45+CD33+ leukemia cells and CD34+ CML stem/progenitor cells in BM,"[3]; cells of patients 3, 4 and 5, 2 weeks of treatment",reduced cell frequencies and absolute numbers
same,eradication of CD34+ CML stem/progenitor cells in BM (NSG mice eradicated of treated),"[3]; patient 4 cells, 2 weeks of treatment",neither imatinib nor anti-CD70 mAb treatment alone eliminated all the CD34+ CML cells
same,CD45+CD33+ CML myeloid cell frequencies and absolute numbers in BM,"[3]; patient 4 cells, imatinib 50 mg/kg daily p.o., anti-CD70 mAb 10 mg/kg i.p. every 3rd day, 2 weeks",significantly reduced
same,CD27 expression,[4],remained unchanged
same,CD70 expression on CD34+ CML stem/progenitor cells,[4],specifically increased CD70 expression on CD34+ CML stem/progenitor cells
same,"DNMT1 and miR-29a, miR-29b, miR-29c expression in CD34+ CML stem/progenitor cells",[4],"decreased the expression of DNMT1 and miR-29a, miR-29b, and miR-29c"
same,SP1 expression in CD34+ CML stem/progenitor cells,[4],up-regulation of SP1
same,cell proliferation (BrdU),[5],reduced cell proliferation
same,cell viability / cell death,[5],induced cell death
same,growth (cell numbers),[5],inhibited growth and proliferation
same,growth and colony formation of healthy donor CD34+ cells,[6],only marginally affected
same,"miR-29a, miR-29b, miR-29c expression",KBM5r cells,did not affect miR-29s
same,concentration at 2 weeks,in vivo,~1000 nM
same,"Fa (fraction affected), imatinib",SD-1 cells; imatinib 0.02 μM,0.001
same,"Fa (fraction affected), imatinib",SD-1 cells; imatinib 0.04 μM,0.040
same,"Fa (fraction affected), imatinib",SD-1 cells; imatinib 0.08 μM,0.149
same,"Fa (fraction affected), imatinib",SD-1 cells; imatinib 0.16 μM,0.201
same,"Fa (fraction affected), imatinib",SD-1 cells; imatinib 0.32 μM,0.243
same,"Fa (fraction affected), imatinib",SD-1 cells; imatinib 0.64 μM,0.351
same,"Fa (fraction affected), imatinib",SD-1 cells; imatinib 1.28 μM,0.432
same,"Fa (fraction affected), imatinib",SD-1 cells; imatinib 2.55 μM,0.527
same,"Fa (fraction affected), imatinib",SD-1 cells; imatinib 5.10 μM,0.689
same,"Fa (fraction affected), imatinib",SD-1 cells; imatinib 10.20 μM,0.791
[Cl-].[Li+] [lithium chloride],"TKI-mediated changes in CD70, SP1, DNMT1 mRNA expression","[7]; lithium chloride 10 μM with ponatinib 0.1 μM, 24 h",restored TKI-mediated changes in gene expression
Cc1cn(-c2cc(NC(=O)c3ccc(C)c(Nc4nccc(-c5cccnc5)n4)c3)cc(C(F)(F)F)c2)cn1 [nilotinib],"miR-29a, miR-29b, miR-29c expression",KBM5r cells,did not affect miR-29s
Cc1ccc(C(=O)Nc2ccc(CN3CCN(C)CC3)c(C(F)(F)F)c2)cc1C#Cc1cnc2cccnn12 [ponatinib],CD70 mRNA expression,[7]; [11],induced
same,Dnmt 1 mRNA expression,[7]; [11],down-regulated Dnmt1 mRNA
same,SP1 mRNA expression,[7]; [11],up-regulated SP1
same,CD70 protein expression (FACS),"[7]; 72 h, therapeutic concentration (imatinib 1 μM, ponatinib 0.1 μM)",induced CD70 protein expression
same,CD70 protein expression (MFI) early after treatment,"[7]; ponatinib 0.1 μM, 16 h",already up-regulated after 16 hours
same,cell death (Annexin-V/7-AAD FACS),"[7]; ponatinib 0.1 μM, 16 h",did not induce substantial cell death
same,CD70 expression in SP1 knockdown (shSP1) KBM5r cells,"[7]; ponatinib 0.1 μM, 72 h, vs scrambled control RNA cells",did not up-regulate CD70
same,CD70 promoter DNA methylation,[8],significantly reduced CD70 promoter DNA methylation
same,"miR-29a, miR-29b, miR-29c expression",KBM5r cells,down-regulation of all three miR-29s
"R-Spondin 1: specific Wnt activator (protein, UniProt Q2MKA7 21-263, looked up) R-spondin-1: SRGIKGKRQRRISAEGSQACAKGCELCSEVNGCLKCSPKLFILLERNDIRQVGVCLPSCPPGYFDARNPDMNKCIKCKIEHCEACFSHNFCTKCKEGLYLHKGRCYPACPEGSSAANGTMECSSPAQCEMSEWSPWGPCSKKQQLCGFRRGSEERTRRVLHAPVGDHAACSDTKETRRCTVRRVPCPEGQKRRKGGQGRRENANRNLARKESKEAGAGSRRRKGQQQQQQQGTVGPLTSAGPA","TKI-mediated changes in CD70, SP1, DNMT1 mRNA expression","[7]; R-Spondin 1 10 ng/ml with ponatinib 0.1 μM, 72 h",restored TKI-mediated changes in gene expression
"OMP-18R5: monoclonal antibody that targets the Frizzled receptors to block association with WNT ligands (antibody, chains of the INN, looked up, V domains shown) VH: EVQLVESGGGLVQPGGSLRLSCAASGFTFSHYTLSWVRQAPGKGLEWVSVISGDGSYTYYADSVKGRFTISSDNSKNTLYLQMNSLRAEDTAVYYCARNFIKYVFANWGQGTLVTVSS VL: DIELTQPPSVSVAPGQTARISCSGDNIGSFYVHWYQQKPGQAPVLVIYDKSNRPSGIPERFSGSNSGNTATLTISGTQAEDEADYYCQSYANTLSLVFGGGTKLTVL",capabilities of pancreatic tumor-initiating cells,[9],potently block the capabilities of pancreatic tumor-initiating cells
same,interaction with standard-of-care treatment,[10],synergized with standard-of-care treatment
same,tumor growth,[10],significant inhibition of tumor growth
